≈ marks a conversion by molar mass, not a printed value. Calls of active or inactive are those of the source. No cut-off for these calls is given here.
Tests used:
Histone deacetylase 9 = Histone deacetylase 9 (Homo sapiens, UniProt Q9UKV0)
[1] = Kinetic aqueous solubility of the compound in PBS buffer at pH 7.4 incubated for 2 hrs under shaking condition by LC-UV analysis; type: physicochemical; details: read-out: Kinetic_solubility
Histone deacetylase 7 = molecular target: T1, Histone deacetylase 7 (Homo sapiens, UniProt Q8WUI4); assay: Inhibition of recombinant HDAC7 (unknown origin) using Boc-Lys(TFA)-AMC as substrate by fluorescence based plate reader assay
T1 sequence (Q8WUI4 whole entry): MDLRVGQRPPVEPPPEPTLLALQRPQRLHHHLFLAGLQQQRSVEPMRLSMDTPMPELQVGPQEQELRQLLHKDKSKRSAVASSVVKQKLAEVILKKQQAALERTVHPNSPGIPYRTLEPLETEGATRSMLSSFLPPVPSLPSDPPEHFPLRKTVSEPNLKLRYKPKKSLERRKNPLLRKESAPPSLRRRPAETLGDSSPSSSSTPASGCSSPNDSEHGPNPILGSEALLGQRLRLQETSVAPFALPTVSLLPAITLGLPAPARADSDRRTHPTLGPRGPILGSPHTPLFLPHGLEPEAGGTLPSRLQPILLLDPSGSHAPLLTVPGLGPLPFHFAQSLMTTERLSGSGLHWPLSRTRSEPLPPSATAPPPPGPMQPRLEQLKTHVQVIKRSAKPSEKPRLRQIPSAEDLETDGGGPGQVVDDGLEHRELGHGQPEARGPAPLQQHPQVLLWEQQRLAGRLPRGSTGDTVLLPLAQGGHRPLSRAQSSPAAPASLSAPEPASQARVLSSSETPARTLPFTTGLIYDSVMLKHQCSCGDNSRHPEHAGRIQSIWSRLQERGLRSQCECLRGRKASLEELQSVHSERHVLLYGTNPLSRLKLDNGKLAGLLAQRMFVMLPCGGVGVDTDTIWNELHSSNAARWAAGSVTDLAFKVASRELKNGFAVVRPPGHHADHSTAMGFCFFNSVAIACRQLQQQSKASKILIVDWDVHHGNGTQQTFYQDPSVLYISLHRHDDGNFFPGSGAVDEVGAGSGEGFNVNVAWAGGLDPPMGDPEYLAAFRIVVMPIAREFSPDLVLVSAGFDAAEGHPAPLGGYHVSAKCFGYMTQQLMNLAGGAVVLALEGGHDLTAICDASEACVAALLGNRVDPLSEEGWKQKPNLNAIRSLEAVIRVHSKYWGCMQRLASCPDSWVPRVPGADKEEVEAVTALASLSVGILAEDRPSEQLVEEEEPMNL

Histone deacetylase 4 = Histone deacetylase 4 (Homo sapiens, UniProt P56524); assay: Inhibition of recombinant HDAC4 (unknown origin) using Boc-Lys(TFA)-AMC as substrate by fluorescence based plate reader assay
Chain of Histone deacetylase 4 (P56524 whole entry): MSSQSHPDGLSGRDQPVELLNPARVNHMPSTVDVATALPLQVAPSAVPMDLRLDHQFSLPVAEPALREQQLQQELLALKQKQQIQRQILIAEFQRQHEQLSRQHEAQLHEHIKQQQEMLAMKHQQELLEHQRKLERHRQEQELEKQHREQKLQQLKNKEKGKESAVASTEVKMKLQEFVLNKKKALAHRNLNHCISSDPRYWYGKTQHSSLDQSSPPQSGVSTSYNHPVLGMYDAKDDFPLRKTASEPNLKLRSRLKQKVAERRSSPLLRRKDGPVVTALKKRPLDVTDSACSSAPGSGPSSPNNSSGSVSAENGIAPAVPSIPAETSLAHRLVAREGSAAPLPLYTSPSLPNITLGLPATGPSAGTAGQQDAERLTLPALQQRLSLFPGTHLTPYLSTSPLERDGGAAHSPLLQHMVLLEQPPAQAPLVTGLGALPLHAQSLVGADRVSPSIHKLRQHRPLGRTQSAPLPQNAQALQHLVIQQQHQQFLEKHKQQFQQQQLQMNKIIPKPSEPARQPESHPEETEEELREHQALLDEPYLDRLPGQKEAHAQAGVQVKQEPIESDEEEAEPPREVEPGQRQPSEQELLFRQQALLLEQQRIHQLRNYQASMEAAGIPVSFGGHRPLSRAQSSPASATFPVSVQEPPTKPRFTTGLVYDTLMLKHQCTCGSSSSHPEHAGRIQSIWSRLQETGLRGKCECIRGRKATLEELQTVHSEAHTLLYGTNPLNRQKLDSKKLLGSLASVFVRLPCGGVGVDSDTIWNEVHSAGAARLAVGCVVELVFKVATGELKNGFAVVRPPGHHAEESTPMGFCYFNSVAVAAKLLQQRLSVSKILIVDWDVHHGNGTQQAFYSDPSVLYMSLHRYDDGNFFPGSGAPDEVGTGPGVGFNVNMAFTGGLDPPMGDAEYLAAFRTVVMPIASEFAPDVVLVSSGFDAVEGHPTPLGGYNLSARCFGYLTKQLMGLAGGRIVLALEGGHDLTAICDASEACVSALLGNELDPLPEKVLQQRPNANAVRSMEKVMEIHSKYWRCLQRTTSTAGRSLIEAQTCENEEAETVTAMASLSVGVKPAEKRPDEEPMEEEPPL

[2] = molecular target: T2, von Hippel-Lindau disease tumor suppressor/Histone deacetylase 4 (Homo sapiens) (UniProt P56524+P40337); assay: Protac activity at VHL/HDAC4 in human Jurkat E6.1 cells assessed as induction of HDAC4 degradation by measuring maximum degradation at 10 uM incubated for 24 hrs by ELISA-based MSD electrochemiluminescence assay relative to control; type: cell-based
T2 sequence (P40337 whole entry, looked up): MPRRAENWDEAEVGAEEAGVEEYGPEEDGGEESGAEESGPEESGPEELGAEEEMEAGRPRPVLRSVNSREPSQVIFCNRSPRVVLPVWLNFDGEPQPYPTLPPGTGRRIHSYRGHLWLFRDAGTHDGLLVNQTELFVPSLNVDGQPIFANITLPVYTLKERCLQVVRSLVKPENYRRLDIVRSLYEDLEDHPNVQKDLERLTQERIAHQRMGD
T2 sequence (P56524 whole entry, looked up): as the sequence (P56524 whole entry) above

[3] = Inhibition of class 2a HDAC in human Jurkat E6.1 cells using Boc-Lys(TFA)-AMC as substrate incubated for 24 hrs by plate reader assay; type: cell-based; details: Jurkat E6.1, 24 h
[4] = molecular target: T3, von Hippel-Lindau disease tumor suppressor/Histone deacetylase 4 (Homo sapiens, UniProt P40337+P56524); assay: Protac activity at VHL/HDAC4 in human Jurkat E6.1 cells assessed as induction of HDAC4 degradation incubated for 24 hrs by ELISA-based MSD electrochemiluminescence assay; type: cell-based
T3 sequence (P56524 whole entry): as above
T3 sequence (P40337 whole entry): as the sequence (P40337 whole entry, looked up) above

Histone deacetylase 5 = Histone deacetylase 5 (Homo sapiens, UniProt Q9UQL6); assay: Inhibition of recombinant HDAC5 (unknown origin) using Boc-Lys(TFA)-AMC as substrate by fluorescence based plate reader assay
Chain of Histone deacetylase 5 (Q9UQL6 whole entry): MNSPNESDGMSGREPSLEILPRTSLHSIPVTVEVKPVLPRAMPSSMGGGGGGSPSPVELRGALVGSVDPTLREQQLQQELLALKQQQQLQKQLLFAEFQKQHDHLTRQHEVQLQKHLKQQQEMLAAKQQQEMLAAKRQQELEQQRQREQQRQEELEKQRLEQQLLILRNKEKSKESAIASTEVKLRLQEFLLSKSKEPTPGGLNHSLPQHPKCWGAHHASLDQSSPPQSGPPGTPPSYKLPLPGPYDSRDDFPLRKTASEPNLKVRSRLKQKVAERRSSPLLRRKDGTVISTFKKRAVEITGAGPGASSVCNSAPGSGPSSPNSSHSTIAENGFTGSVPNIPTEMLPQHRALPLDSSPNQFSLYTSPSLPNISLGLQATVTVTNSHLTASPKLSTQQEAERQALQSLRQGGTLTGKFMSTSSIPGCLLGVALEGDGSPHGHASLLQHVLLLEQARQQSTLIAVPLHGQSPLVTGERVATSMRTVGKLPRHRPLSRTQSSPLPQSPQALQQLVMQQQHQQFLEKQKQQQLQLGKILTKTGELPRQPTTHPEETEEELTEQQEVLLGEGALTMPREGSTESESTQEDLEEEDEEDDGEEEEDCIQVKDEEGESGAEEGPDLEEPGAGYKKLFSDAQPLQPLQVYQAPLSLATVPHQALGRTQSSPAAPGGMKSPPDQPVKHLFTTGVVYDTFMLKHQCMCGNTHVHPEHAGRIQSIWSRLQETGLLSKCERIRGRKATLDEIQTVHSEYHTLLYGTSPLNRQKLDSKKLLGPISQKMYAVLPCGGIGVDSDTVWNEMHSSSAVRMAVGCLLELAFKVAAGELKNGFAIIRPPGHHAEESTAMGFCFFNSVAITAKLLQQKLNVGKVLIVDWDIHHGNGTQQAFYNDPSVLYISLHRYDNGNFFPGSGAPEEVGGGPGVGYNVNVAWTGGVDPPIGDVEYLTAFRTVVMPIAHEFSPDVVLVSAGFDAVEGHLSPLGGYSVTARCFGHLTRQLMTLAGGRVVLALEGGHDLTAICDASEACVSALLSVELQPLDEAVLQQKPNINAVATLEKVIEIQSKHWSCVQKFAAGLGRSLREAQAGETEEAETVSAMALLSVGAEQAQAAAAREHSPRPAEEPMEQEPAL

[5] = molecular target: Class 1 histone deacetylase (Homo sapiens, UniProt Q13547+O15379+Q92769+Q9BY41); assay: Inhibition of class 1 HDAC in human Jurkat E6.1 cells using Boc-Lys(Ac)-AMC as substrate incubated for 24 hrs by plate reader assay; type: cell-based
Vhl/Hdac4 [6] = molecular target: T4, Vhl/Hdac4 (Mus musculus, UniProt P40338+Q6NZM9); assay: Protac activity at VHL/HDAC4 in mouse Neuro2a cells assessed as induction of HDAC4 degradation preincubated with elacridar for 1 hr followed by compound addition and measured after 24 hrs by MSD assay
T4 sequence (Q6NZM9 whole entry): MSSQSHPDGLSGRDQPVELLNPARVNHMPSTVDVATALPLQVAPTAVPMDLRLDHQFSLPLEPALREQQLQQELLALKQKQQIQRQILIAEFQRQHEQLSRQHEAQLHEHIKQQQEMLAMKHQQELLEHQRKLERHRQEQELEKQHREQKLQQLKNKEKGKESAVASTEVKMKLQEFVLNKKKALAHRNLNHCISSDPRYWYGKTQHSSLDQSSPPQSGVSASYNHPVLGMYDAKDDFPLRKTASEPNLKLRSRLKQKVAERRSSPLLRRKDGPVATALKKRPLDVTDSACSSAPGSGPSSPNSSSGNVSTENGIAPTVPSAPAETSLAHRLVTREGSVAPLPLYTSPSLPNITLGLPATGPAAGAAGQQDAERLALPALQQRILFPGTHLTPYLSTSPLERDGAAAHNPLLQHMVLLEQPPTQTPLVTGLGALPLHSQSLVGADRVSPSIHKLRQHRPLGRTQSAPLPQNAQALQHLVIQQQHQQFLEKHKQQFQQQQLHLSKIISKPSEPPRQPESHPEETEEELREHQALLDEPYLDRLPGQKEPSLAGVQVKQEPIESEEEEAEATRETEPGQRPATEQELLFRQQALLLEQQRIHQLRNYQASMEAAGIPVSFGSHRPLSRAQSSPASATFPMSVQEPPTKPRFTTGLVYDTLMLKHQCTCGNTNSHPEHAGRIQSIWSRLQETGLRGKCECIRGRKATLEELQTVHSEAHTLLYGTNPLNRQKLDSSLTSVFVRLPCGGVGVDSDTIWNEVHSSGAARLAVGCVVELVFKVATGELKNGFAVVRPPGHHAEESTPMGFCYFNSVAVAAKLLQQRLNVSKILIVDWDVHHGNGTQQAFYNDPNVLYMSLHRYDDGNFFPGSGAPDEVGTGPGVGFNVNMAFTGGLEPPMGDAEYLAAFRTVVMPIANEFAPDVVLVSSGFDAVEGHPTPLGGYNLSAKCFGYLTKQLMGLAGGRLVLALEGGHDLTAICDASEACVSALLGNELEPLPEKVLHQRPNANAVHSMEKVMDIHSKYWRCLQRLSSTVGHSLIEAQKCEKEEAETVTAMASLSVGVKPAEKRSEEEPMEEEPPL
T4 sequence (P40338 whole entry): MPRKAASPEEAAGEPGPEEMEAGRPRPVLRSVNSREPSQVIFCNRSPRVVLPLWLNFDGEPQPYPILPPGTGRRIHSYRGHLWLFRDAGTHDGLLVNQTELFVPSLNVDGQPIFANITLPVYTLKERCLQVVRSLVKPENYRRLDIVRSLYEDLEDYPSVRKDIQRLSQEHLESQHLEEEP

[7] = Apparent permeability in MDCK cells; type: ADME, cell-based, Canis lupus familiaris; details: dog
[8] = Efflux ratio of apparent permeability basolateral to apical over apical to basolateral side in MDCK cells; type: ADME, cell-based, Canis lupus familiaris; details: dog
[9] = Efflux ratio of apparent permeability basolateral to apical over apical to basolateral side in MDCK-MDR1 cells; type: ADME, cell-based, Canis lupus familiaris; details: dog
[10] = molecular target: T3, von Hippel-Lindau disease tumor suppressor/Histone deacetylase 4; assay: Protac activity at VHL/HDAC4 in human Jurkat E6.1 cells assessed as induction of HDAC4 degradation preincubated with elacridar for 1 hr followed by compound addition and measured after 24 hrs by Western blot analysis; type: cell-based
[11] = Apparent permeability in MDCK-MDR1 cells; type: ADME, cell-based, Canis lupus familiaris; details: dog
[12] = molecular target: T3, von Hippel-Lindau disease tumor suppressor/Histone deacetylase 4; assay: Protac activity at VHL/HDAC4 in human Jurkat E6.1 cells assessed as induction of HDAC4 degradation incubated for 24 hrs in absence of elacridar by Western blot analysis; type: cell-based
[13] = molecular target: T3, von Hippel-Lindau disease tumor suppressor/Histone deacetylase 4; assay: Protac activity at VHL/HDAC4 in human Jurkat E6.1 cells assessed as induction of HDAC4 degradation incubated for 24 hrs by immunoblotting analysis; type: cell-based
Vhl/Hdac4 [14] = molecular target: T4, Vhl/Hdac4; assay: Protac activity at VHL/HDAC4 in Q175 KI mouse cortical neuron assessed as induction of HDAC4 degradation incubated for 4 to 72 hrs in absence of elacridar by MSD assay; type: cell-based
[15] = Apparent permeability in MDCK-BCRP cells; type: ADME, cell-based, Canis lupus familiaris; details: dog
[16] = Selectivity ratio of DC50 for protac activity at VHL/HDAC4 in mouse Neuro2a cells to DC50 for protac activity at VHL/HDAC4 in human Jurkat E6.1 cells; type: cell-based
Vhl/Hdac4 [17] = molecular target: T4, Vhl/Hdac4; assay: Protac activity at VHL/HDAC4 in mouse Neuro2a cells assessed as induction of HDAC4 degradation incubated for 24 hrs in absence of elacridar by MSD assay
[18] = Efflux ratio of apparent permeability basolateral to apical over apical to basolateral side in MDCK-BCRP cells; type: ADME, cell-based, Canis lupus familiaris; details: dog
Homo sapiens [19] = species on record: Homo sapiens; assay: Selectivity ratio of IC50 for inhibition of HDAC4 (unknown origin) to IC50 for inhibition of HDAC9 (unknown origin)
Homo sapiens [20] = species on record: Homo sapiens; assay: Selectivity ratio of IC50 for inhibition of HDAC4 (unknown origin) to IC50 for inhibition of HDAC5 (unknown origin)
[21] = molecular target: T2, von Hippel-Lindau disease tumor suppressor/Histone deacetylase 4 (Homo sapiens); assay: Protac activity at VHL/HDAC4 in human Jurkat E6.1 cells assessed as induction of HDAC4 degradation at 1 uM incubated for 6 hrs by immunoblotting analysis; type: cell-based
Homo sapiens [22] = species on record: Homo sapiens; assay: Selectivity ratio of IC50 for inhibition of HDAC4 (unknown origin) to IC50 for inhibition of HDAC7 (unknown origin)

Chain of Histone deacetylase 9 (Q9UKV0 whole entry): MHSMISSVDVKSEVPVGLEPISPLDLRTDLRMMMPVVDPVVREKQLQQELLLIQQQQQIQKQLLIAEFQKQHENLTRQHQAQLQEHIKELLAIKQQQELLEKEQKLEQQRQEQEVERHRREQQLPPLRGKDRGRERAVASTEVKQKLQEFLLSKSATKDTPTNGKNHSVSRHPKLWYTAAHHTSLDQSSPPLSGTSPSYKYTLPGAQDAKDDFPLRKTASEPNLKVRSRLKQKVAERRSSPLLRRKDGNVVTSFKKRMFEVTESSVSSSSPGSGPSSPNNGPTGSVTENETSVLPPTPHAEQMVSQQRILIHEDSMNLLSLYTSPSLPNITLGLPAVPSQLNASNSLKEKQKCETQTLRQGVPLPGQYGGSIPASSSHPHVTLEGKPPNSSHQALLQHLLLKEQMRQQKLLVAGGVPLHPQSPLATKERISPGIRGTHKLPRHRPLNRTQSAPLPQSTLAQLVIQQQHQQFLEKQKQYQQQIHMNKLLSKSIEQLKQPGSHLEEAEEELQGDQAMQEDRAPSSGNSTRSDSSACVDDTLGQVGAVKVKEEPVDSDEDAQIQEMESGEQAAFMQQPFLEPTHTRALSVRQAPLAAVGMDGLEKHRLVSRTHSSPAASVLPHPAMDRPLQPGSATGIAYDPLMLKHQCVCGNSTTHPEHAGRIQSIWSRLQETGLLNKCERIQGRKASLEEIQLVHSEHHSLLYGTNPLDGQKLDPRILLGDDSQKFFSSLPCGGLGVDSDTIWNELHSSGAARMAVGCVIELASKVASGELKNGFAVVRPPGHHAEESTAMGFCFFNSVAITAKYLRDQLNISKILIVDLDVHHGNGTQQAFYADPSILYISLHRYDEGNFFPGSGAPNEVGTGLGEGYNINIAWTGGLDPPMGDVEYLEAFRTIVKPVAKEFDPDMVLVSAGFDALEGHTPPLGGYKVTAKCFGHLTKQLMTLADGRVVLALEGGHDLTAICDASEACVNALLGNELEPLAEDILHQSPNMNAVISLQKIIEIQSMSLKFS

| Structure (SMILES) | IC50 (Histone deacetylase 9) | solubility kinetic at 2 h [1] | IC50 (Histone deacetylase 7) | IC50 (Histone deacetylase 4) | Emax [2] | IC50 [3] | EC50 [4] | IC50 (Histone deacetylase 5) | IC50 [5] | other results |
| --- | --- | --- | --- | --- | --- | --- | --- | --- | --- | --- |
| CCCN(CCC)C[C@@H](C)NC(=O)c1ccc(-c2noc(C(F)(F)F)n2)cc1 |  | 145 µM (≈ 57.8 µg/mL) |  |  |  |  |  |  |  |  |
| Cc1ncsc1-c1ccc(CNC(=O)[C@@H]2C[C@@H](O)CN2C(=O)[C@@H](NC(=O)COCCOCCOCC(F)(F)c2cnc(-c3ccc(C(C(=O)NO)c4ccccc4F)cc3)nc2)C(C)(C)C)cc1 (mixture of isomers) | 0.29 µM | 5.2 µM | 0.21 µM | 0.41 µM | 77% | 0.15 µM | 0.028 µM | 0.23 µM | > 5 µM |  |
| CCCN(CCCCOCCOCCOCCOCC(=O)N[C@H](C(=O)N1C[C@H](O)C[C@H]1C(=O)NCc1ccc(-c2scnc2C)cc1)C(C)(C)C)C[C@@H](C)NC(=O)c1ccc(-c2noc(C(F)(F)F)n2)cc1 | 0.22 µM | 132 µM (≈ 136 µg/mL) | 0.23 µM | 0.1 µM | 85% | 0.002 µM | 0.004 µM | 0.25 µM | 2.8 µM |  |
| Cc1ncsc1-c1ccc(CNC(=O)[C@@H]2C[C@H](O)CN2C(=O)[C@@H](NC(=O)COCCOCCOCCOCCOCC(F)(F)c2cnc(-c3ccc(C(C(=O)NO)c4ccccc4F)cc3)nc2)C(C)(C)C)cc1 (some centres undefined) |  | 4.8 µM (≈ 5.04 µg/mL) |  | 0.23 µM | 20% | 0.13 µM | > 10 µM |  | > 5 µM |  |
| CCCN(CCCCOCCOCCOCC(=O)N[C@H](C(=O)N1C[C@H](O)C[C@H]1C(=O)NCc1ccc(-c2scnc2C)cc1)C(C)(C)C)C[C@@H](C)NC(=O)c1ccc(-c2noc(C(F)(F)F)n2)cc1 | 0.13 µM | 100 µM (≈ 98.7 µg/mL) | 0.22 µM | 0.09 µM | 72% | 0.033 µM | 0.003 µM | 0.14 µM | 4.3 µM |  |

Further lines, with some results ahead:

| IC50 (Histone deacetylase 9) | solubility kinetic at 2 h [1] | IC50 (Histone deacetylase 7) | IC50 (Histone deacetylase 4) | Emax [2] | IC50 [3] | EC50 [4] | IC50 (Histone deacetylase 5) | IC50 [5] | Structure (SMILES) | other results |
| --- | --- | --- | --- | --- | --- | --- | --- | --- | --- | --- |
| 0.34 µM | 5 µM (≈ 5.03 µg/mL) | 0.21 µM | 0.56 µM | 82% | 0.16 µM | 0.048 µM | 0.31 µM | > 5 µM | Cc1ncsc1-c1ccc(CNC(=O)[C@@H]2C[C@@H](O)CN2C(=O)[C@@H](NC(=O)COCCOCCOCCOCC(F)(F)c2cnc(-c3ccc(C(C(=O)NO)c4ccccc4F)cc3)nc2)C(C)(C)C)cc1 (some centres undefined) |  |
| 0.094 µM | 144 µM (≈ 155 µg/mL) | 0.15 µM | 0.092 µM | 78% | 0.006 µM | 0.004 µM | 0.15 µM | > 5 µM | CCCN(CCCCOCCOCCOCCOCCOCC(=O)N[C@H](C(=O)N1C[C@H](O)C[C@H]1C(=O)NCc1ccc(-c2scnc2C)cc1)C(C)(C)C)C[C@@H](C)NC(=O)c1ccc(-c2noc(C(F)(F)F)n2)cc1 | EC50 (Vhl/Hdac4 [6]): 0.0023 µM; Papp [7]: 2.1 ×10⁻⁶ cm/s; Ratio [8]: 13; Ratio [9]: 7; EC50 [10]: 0.0016 µM; Papp [11]: 2.6 ×10⁻⁶ cm/s; EC50 [12]: 0.0017 µM; EC50 [13]: 0.002 µM; EC50 (Vhl/Hdac4 [14]): 0.0011 µM; Papp [15]: 1.4 ×10⁻⁶ cm/s; Ratio EC50 [16]: 20; EC50 (Vhl/Hdac4 [17]): 0.081 µM; Ratio [18]: 5 |
| 0.42 µM | 4.8 µM (≈ 5.04 µg/mL) | 0.25 µM | 1.1 µM | 83% | 0.12 µM | 0.037 µM | 0.26 µM | > 5 µM | Cc1ncsc1-c1ccc(CNC(=O)[C@@H]2C[C@@H](O)CN2C(=O)[C@@H](NC(=O)COCCOCCOCCOCCOCC(F)(F)c2cnc(-c3ccc(C(C(=O)NO)c4ccccc4F)cc3)nc2)C(C)(C)C)cc1 (some centres undefined) | Ratio IC50 (Homo sapiens [19]): 3; EC50 [13]: 0.011 µM; Ratio IC50 (Homo sapiens [20]): 3; Activity [21]: Active; Ratio IC50 (Homo sapiens [22]): 3 |
|  |  |  | 0.15 µM | 50% | 0.18 µM | > 10 µM |  | > 5 µM | CCCN(CCCCOCCOCCOCCOCCOCC(=O)N[C@@H](C(=O)N1C[C@@H](O)C[C@@H]1C(=O)NCc1ccc(-c2scnc2C)cc1)C(C)(C)C)C[C@@H](C)NC(=O)c1ccc(-c2noc(C(F)(F)F)n2)cc1 |  |
